These results are taken from US20260041620A1, “NOVEL AMINO ACID BASED SALTS, COMPOSITIONS AND METHODS FOR TREATING SKIN AND IMPROVING SKIN REJUVENATION AND LONGEVITY” (Sytheon Ltd, priority 2023, published 2026).

The target of one test is T1, HDAC7 (Homo sapiens, UniProt Q8WUI4).
T1 sequence (Q8WUI4 1-952): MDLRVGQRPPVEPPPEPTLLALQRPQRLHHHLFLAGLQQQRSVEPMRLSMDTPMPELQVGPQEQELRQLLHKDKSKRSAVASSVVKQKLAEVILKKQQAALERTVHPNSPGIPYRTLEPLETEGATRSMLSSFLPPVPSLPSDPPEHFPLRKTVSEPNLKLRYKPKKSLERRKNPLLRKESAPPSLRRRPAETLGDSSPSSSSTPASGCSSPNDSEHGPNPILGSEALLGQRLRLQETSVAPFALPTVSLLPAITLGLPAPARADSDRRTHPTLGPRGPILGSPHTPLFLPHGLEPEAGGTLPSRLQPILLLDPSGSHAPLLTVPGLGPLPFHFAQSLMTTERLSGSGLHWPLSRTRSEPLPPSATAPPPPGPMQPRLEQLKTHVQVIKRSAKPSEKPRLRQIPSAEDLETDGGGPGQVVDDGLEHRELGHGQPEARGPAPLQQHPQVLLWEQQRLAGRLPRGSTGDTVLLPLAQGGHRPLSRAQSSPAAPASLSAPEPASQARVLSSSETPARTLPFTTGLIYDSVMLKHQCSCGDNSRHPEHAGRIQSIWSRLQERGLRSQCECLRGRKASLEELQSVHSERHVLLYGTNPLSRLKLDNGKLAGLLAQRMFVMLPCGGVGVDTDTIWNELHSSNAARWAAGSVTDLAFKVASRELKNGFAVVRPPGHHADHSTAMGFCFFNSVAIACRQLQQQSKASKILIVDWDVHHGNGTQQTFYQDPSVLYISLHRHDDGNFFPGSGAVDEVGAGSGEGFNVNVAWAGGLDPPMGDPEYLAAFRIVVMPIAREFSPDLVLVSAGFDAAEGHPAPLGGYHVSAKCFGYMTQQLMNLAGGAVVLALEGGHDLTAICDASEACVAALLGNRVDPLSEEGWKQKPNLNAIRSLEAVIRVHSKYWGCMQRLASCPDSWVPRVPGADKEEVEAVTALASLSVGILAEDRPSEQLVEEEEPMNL
The note with it: reported, abcam; cited from earlier work.

The target in the next test is T2, HDAC6 (Homo sapiens, UniProt Q9UBN7).
T2 sequence (Q9UBN7 1-1215): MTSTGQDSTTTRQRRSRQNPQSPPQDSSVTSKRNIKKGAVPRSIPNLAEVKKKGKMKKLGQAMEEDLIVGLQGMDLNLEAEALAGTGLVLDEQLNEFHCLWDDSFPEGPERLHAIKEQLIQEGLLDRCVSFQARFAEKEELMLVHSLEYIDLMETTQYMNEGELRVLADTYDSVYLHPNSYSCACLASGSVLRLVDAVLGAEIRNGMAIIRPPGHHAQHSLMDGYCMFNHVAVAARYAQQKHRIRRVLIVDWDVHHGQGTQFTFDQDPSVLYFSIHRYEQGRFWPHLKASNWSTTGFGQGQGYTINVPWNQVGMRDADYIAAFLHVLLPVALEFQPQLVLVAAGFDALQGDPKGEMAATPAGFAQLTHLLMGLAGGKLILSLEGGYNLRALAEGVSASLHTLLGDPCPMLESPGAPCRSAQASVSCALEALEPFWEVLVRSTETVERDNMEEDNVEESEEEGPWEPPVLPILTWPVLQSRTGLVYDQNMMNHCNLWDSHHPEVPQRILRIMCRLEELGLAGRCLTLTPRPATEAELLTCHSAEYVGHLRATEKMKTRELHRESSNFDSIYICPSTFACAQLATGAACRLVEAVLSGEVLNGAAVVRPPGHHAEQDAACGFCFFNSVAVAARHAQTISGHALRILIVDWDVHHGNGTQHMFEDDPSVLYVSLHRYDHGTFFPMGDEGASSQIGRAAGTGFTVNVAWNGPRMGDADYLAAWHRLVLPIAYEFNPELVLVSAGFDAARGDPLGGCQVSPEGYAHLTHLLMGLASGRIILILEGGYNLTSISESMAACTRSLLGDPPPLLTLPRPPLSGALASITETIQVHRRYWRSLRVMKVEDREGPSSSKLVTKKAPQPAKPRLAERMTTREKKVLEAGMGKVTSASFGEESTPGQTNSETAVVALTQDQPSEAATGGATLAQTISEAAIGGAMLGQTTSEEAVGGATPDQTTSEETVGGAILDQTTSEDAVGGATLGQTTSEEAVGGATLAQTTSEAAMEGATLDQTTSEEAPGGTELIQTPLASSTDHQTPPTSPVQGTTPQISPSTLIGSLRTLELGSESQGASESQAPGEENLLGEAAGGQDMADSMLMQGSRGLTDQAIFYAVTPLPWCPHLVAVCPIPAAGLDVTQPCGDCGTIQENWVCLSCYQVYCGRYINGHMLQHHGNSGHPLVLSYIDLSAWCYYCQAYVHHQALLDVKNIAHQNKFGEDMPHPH
The note with it: reported, abcam; cited from earlier work.

Another test concerns the target T3, COX-2 (Homo sapiens, UniProt P35354).
T3 sequence (P35354 18-604): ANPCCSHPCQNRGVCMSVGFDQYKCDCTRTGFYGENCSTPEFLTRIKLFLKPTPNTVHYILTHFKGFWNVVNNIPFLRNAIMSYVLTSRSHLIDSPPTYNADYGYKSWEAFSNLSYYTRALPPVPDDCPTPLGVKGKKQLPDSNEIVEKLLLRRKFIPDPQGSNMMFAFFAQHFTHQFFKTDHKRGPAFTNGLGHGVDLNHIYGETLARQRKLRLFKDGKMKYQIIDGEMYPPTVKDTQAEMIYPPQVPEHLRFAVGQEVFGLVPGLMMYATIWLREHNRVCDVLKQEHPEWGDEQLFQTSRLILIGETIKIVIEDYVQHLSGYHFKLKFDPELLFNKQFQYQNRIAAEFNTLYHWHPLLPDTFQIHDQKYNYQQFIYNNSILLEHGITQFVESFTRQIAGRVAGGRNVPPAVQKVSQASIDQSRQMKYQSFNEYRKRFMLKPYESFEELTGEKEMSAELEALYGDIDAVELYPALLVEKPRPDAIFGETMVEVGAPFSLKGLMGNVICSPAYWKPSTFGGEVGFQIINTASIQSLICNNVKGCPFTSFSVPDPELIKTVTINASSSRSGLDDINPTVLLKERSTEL
As to the kind of experiment: biochemical.

Procedure for COX-2: A 0.1 gram sample of each test material was dissolved in 1 mL propanediol make a stock solution, each of which was subject to 1 to 2 serial dilutions using buffer for use in determining the IC50 Testing and analysis was performed in accordance with the protocol of the COX-2 Kt (Cayman Catalog #701080) (Cayman catalog #62160).

For `CCCC(=O)[O-].[Na+]` [Sodium butyrate, reference compound], the IC50 on HDAC7 is 300 µM; against COX-2, 2670 µM. Besides, the “inhibition of HDAC6” value on HDAC6 is given as “no inhibition”.
